1 compound from ChEMBL document CHEMBL1130372, “Synthesis and evaluation of putative oxocarbenium intermediate mimic in the KDO8P synthase-catalyzed reaction as a tool for the design of potent inhibitors for lipopolysaccharide biosynthesis” (Bioorg Med Chem Lett, 1997) can be followed below.

This experiment is described as follows: The inhibitory activity was evaluated against homogeneous KDO 8-P synthase from Escherichia coli by varying PEP at saturating concentrations of A5P (0.5 mM).

Each structure is given as a SMILES string.

On to `O=C(O)CN(CC(O)C(O)C(O)[C@H](O)COP(=O)(O)O)CP(=O)(O)O` (stereo partly specified), for which the affinity corresponds to a Ki of 3.3 µM.
